Legend:
Assay in all cases: relative viability (nuclei count vs DMSO), 5 days (fraction); higher = more cells survive
[1] = compound: CC1=CC=C(C=C1)C(=O)CN2C3=C(CCCC3)SC2=N [Pifithrin_alpha] + COc1cccc2cc(-c3nc([C@H]4CC[C@H](C(=O)O)CC4)n4ncnc(N)c34)[nH]c12 [OSI-027] (partner 0.5 µM)
Method in brief: (§1)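 Relative viability was taken as the ratio of nuclei in treated wells to nuclei in vehicle wells. Lung cancer cell lines in 1536-well plates received compounds by pin tool one day after seeding, either one drug alone or a fixed anchor-drug dose plus five library-drug doses (not always all listed) in √10 steps. Nuclei were counted on 4× images after 5 days of treatment, and values are medians of duplicate plates.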

[2] = compound: CC1=CC=C(C=C1)C(=O)CN2C3=C(CCCC3)SC2=N [Pifithrin_alpha] + Nc1ncn([C@H]2C[C@H](O)[C@@H](CO)O2)c(=O)n1 [Decitabine] (partner 2 µM)
Method in brief: as §1

Axitinib + Navitoclax = compound: CNC(=O)c1ccccc1Sc1ccc2c(/C=C/c3ccccn3)n[nH]c2c1 [Axitinib] + CC1(C)CCC(c2ccc(Cl)cc2)=C(CN2CCN(c3ccc(C(=O)NS(=O)(=O)c4ccc(N[C@H](CCN5CCOCC5)CSc5ccccc5)c(S(=O)(=O)C(F)(F)F)c4)cc3)CC2)C1 [Navitoclax] (partner 0.5 µM)
Method in brief: as §1

Axitinib + AZD7762 = compound: CNC(=O)c1ccccc1Sc1ccc2c(/C=C/c3ccccn3)n[nH]c2c1 [Axitinib] + NC(=O)Nc1cc(-c2cccc(F)c2)sc1C(=O)N[C@H]1CCCNC1 [AZD7762] (partner 0.2 µM)
Method in brief: as §1

Cell Line	relative viability ([1]; first compound 1 µM)	relative viability ([1]; first compound 3.162 µM)	relative viability ([1]; first compound 10 µM)	relative viability ([1]; first compound 31.62 µM)	relative viability ([1]; first compound 100 µM)	relative viability ([2]; first compound 3.162 µM)	relative viability ([2]; first compound 10 µM)	relative viability ([2]; first compound 100 µM)	relative viability (Axitinib + Navitoclax; first compound 0.005 µM)	relative viability (Axitinib + Navitoclax; first compound 0.01581 µM)	relative viability (Axitinib + Navitoclax; first compound 0.05 µM)	relative viability (Axitinib + Navitoclax; first compound 0.1581 µM)	relative viability (Axitinib + Navitoclax; first compound 0.5 µM)	relative viability (Axitinib + AZD7762; first compound 0.005 µM)	relative viability (Axitinib + AZD7762; first compound 0.01581 µM)	relative viability (Axitinib + AZD7762; first compound 0.05 µM)	relative viability (Axitinib + AZD7762; first compound 0.1581 µM)	relative viability (Axitinib + AZD7762; first compound 0.5 µM)	relative viability ([2]; first compound 1 µM)	relative viability ([2]; first compound 31.62 µM)
NCI-H1395	0.541	0.629	0.617	0.432	0.643	0.649	0.709	0.735	1.14	1.21	1.02	1.01	1.57	0.4	0.378	0.386	0.405	0.386	–	–
NCI-H2085	–	0.781	0.473	0.505	0.398	0.419	0.473	0.503	1.09	1.28	1.26	1.03	1.18	1.04	0.908	1.03	0.983	0.952	0.523	0.473
HCC-366	0.787	0.605	0.538	–	0.48	0.326	0.403	0.297	1.07	1.03	1.01	1.06	1.15	0.307	0.206	0.377	0.337	0.405	0.308	–
NCI-H322M	0.536	0.531	0.503	0.419	0.508	0.708	0.719	0.784	1.18	1.14	1.07	1.08	1.07	0.564	0.525	0.579	0.548	0.612	0.72	0.78
201T	0.453	0.542	0.524	0.439	0.467	0.866	0.815	0.74	1.21	1.18	1.18	1.27	1.23	0.626	0.56	0.593	0.539	0.59	0.866	0.701
ChaGo-K-1	0.374	0.479	0.53	0.321	0.482	0.533	0.515	0.496	1.07	0.779	1.13	0.921	0.895	0.912	0.862	0.908	0.868	0.886	0.491	0.407
NCI-H1755	0.57	0.687	0.675	0.525	0.566	0.632	0.731	0.729	1.04	0.92	0.99	0.964	1	0.509	0.435	0.454	0.524	0.47	0.74	0.593
NCI-H1666	0.789	0.771	0.651	0.642	0.585	0.595	0.557	0.569	0.975	0.91	1.01	0.914	1.18	0.836	0.816	0.879	0.865	0.84	0.523	0.615
PC-3 [JPC-3]	0.676	0.747	0.574	0.545	0.618	0.742	–	0.642	0.827	–	0.787	0.82	0.928	0.835	–	0.933	0.765	0.781	–	0.714
NCI-H1975	0.731	0.583	0.319	0.309	0.276	0.339	0.306	0.279	1.24	1.07	1.14	1.19	1.17	0.743	0.733	0.698	0.715	0.816	0.663	0.311
LC-2-ad	–	0.84	0.797	–	0.675	0.73	0.811	0.675	0.572	0.576	0.532	0.506	0.573	0.845	0.845	0.834	0.841	0.952	0.786	0.683
NCI-H1993	0.509	0.537	0.571	0.65	0.59	0.494	0.609	0.505	1.13	0.937	1.07	1.03	1.1	0.819	0.933	0.746	0.883	0.818	0.514	0.467
H3255	0.552	0.608	0.504	0.521	0.572	0.66	0.646	0.572	0.617	0.377	0.354	0.476	0.561	0.841	0.734	0.891	0.915	0.879	0.581	0.389
NCI-H727	0.394	0.577	0.579	–	0.404	0.782	0.835	0.749	0.582	0.466	0.454	0.451	0.61	0.488	0.554	0.629	0.738	0.584	0.328	0.731
NCI-H1355	0.336	0.329	0.323	0.307	0.309	0.349	0.339	0.304	0.992	0.921	0.948	1.01	0.991	0.799	0.833	0.845	0.769	0.735	0.308	0.29
LXF-289	0.53	0.766	0.737	0.68	0.729	0.335	0.388	0.369	0.952	0.944	0.944	0.945	0.928	1.16	1.06	1.11	1.06	1.18	0.359	0.366
NCI-H3122	1	1.26	1.01	–	0.786	0.443	0.539	0.468	0.992	0.956	1.05	1.02	1.04	0.976	0.991	0.892	0.92	1.04	0.529	0.364

— the supplement of paper PMC10307832
